ChEMBL document CHEMBL2380303, “Synthesis, cytotoxicity and topoisomerase II inhibitory activity of lomefloxacin derivatives” (Bioorg Med Chem Lett, 2013)
The source made the active and inactive calls. No cut-off for these calls is given here.

Legend:
[1] = biological target: T1, DNA topoisomerase 1 (Homo sapiens) (UniProt P11387); experiment: Inhibition of human topoisomerase 1-mediated relaxation of supercoiled plasmid DNA assessed as formation of linear DNA at 100 uM by agarose gel electrophoresis
T1 sequence (whole entry): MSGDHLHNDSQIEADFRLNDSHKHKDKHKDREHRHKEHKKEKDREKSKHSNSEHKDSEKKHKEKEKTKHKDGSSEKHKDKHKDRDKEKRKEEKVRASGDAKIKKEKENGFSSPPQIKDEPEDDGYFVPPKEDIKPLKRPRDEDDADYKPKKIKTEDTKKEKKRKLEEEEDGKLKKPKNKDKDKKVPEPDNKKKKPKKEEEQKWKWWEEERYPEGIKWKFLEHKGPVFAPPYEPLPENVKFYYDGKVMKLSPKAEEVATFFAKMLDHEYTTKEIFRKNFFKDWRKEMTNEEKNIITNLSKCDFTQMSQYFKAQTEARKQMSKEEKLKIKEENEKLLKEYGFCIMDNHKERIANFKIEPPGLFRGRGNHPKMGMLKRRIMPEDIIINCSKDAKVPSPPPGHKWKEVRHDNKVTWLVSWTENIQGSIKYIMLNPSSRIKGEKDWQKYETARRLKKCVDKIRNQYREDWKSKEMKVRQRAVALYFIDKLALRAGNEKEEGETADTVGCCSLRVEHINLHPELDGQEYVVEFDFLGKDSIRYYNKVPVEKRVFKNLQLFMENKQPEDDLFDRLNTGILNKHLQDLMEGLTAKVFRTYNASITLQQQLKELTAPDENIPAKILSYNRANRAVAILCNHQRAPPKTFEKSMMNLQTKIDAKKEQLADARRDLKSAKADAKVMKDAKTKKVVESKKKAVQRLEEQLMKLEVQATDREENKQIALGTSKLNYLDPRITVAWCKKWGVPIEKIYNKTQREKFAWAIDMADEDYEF

[2] = tested on: KB; experiment: Cytotoxicity against human KB cells by MTT assay; format: functional, cell-based
[3] = tested on: Bel-7402; experiment: Cytotoxicity against human Bel7402 cells by MTT assay; format: functional, cell-based
[4] = tested on: HCT-116; experiment: Cytotoxicity against human HCT116 cells by MTT assay; format: functional, cell-based
[5] = tested on: MDA-MB-231; experiment: Cytotoxicity against human MDA-MB-231 cells by MTT assay; format: functional, cell-based
[6] = tested on: A549; experiment: Cytotoxicity against human A549 cells by MTT assay; format: functional, cell-based
[7] = biological target: DNA topoisomerase 2-alpha (Homo sapiens) (UniProt P11388); experiment: Inhibition of human topoisomerase 2-mediated relaxation of supercoiled plasmid DNA assessed as formation of linear DNA at 100 uM by agarose gel electrophoresis
Chain of DNA topoisomerase 2-alpha (Homo sapiens) (P11388 whole entry): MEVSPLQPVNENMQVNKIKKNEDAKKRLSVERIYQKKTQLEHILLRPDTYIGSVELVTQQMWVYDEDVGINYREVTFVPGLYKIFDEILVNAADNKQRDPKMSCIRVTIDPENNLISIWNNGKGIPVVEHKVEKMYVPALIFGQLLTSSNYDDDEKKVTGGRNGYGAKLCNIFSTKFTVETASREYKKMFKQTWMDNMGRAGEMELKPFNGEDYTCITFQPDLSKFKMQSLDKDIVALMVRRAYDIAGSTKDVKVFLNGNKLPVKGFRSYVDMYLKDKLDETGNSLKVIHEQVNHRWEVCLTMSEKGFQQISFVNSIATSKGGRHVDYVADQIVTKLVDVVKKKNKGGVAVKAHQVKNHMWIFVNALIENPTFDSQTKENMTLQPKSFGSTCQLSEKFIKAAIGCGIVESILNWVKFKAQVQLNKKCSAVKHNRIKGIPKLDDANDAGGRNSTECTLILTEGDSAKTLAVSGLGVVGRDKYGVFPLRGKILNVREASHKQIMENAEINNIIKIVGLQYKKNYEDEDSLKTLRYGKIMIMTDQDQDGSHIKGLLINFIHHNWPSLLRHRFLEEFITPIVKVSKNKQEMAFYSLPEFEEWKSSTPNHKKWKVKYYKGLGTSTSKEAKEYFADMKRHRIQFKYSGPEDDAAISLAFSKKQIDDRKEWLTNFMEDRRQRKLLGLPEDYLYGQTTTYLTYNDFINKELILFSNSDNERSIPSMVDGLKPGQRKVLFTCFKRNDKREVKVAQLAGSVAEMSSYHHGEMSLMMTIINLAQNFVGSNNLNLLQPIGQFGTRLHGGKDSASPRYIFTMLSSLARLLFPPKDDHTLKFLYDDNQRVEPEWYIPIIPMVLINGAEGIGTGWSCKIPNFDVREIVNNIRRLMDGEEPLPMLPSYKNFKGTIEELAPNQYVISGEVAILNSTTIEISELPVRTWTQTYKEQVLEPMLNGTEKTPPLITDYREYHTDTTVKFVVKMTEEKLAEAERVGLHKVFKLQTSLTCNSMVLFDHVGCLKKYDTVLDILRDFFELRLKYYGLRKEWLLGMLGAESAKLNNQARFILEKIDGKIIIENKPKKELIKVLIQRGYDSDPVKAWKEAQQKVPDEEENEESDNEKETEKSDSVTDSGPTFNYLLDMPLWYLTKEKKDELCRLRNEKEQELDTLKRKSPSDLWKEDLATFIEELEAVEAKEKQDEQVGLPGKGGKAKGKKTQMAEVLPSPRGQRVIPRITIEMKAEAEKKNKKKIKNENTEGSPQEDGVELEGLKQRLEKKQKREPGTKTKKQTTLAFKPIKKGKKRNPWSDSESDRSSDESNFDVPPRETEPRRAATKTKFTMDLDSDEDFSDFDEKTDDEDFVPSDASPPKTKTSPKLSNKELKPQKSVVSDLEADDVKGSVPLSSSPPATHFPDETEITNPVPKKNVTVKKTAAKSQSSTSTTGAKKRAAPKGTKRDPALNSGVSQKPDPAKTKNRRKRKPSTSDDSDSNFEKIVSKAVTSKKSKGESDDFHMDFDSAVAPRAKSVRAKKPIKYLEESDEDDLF

SMILES	inhibition [1]	IC50 [2] [nM]	IC50 [3] [µM]	IC50 [4] [µM]	IC50 [5] [µM]	IC50 [6] [µM]	inhibition [7]
CCn1cc(C(=O)Nc2ccccc2O)c(=O)c2cc(F)c(N3CCNC(C)C3)c(F)c21 (stereo not drawn)	inactive	5050	> 50	5.37	7.43	24.8	
CCn1cc(C(=O)NCc2ccc(OC)cc2)c(=O)c2cc(F)c(N3CCNC(C)C3)c(F)c21 (stereo not drawn)	inactive	1630	10.3	1.4	25.3	7	
CCn1cc(C(=O)Nc2ccccc2)c(=O)c2cc(F)c(N3CCNC(C)C3)c(F)c21 (stereo not drawn)	inactive	4400	6	12.7	7.4	39.3	
CCn1cc(-c2nc3ccc([N+](=O)[O-])cc3o2)c(=O)c2cc(F)c(N3CCNC(C)C3)c(F)c21 (stereo not drawn)	inactive	900	1.6	1.1	2	0.9	
CCn1cc(C(=O)Nc2ccc(C)c([N+](=O)[O-])c2)c(=O)c2cc(F)c(N3CCNC(C)C3)c(F)c21 (stereo not drawn)	inactive	3900	29.1	11.8	4.2	3.7	Active
COc1cc([C@@H]2c3cc4c(cc3[C@@H](O[C@@H]3O[C@@H]5CO[C@@H](C)O[C@H]5[C@H](O)[C@H]3O)[C@H]3COC(=O)[C@H]23)OCO4)cc(OC)c1O							Active
CCn1cc(C(=O)Nc2ccccc2N)c(=O)c2cc(F)c(N3CCNC(C)C3)c(F)c21 (stereo not drawn)	inactive	2800	4.8	2.7	9.5	5.9	
CCn1cc(C(=O)Nc2ccc(Cl)cn2)c(=O)c2cc(F)c(N3CCNC(C)C3)c(F)c21 (stereo not drawn)	inactive	1600	4.9	3.3	4.8	3.3	Active
CCn1cc(C(=O)Nc2nccs2)c(=O)c2cc(F)c(N3CCNC(C)C3)c(F)c21 (stereo not drawn)	inactive	43500	> 50	8.66	> 50	20.2	
CCn1cc(C(=O)Nc2ccc(OC(F)(F)F)cc2)c(=O)c2cc(F)c(N3CCNC(C)C3)c(F)c21 (stereo not drawn)	inactive	1400	2	2.35	0.98	1.32	Active
CCn1cc(C(=O)Nc2ccc(C(C)=O)cc2)c(=O)c2cc(F)c(N3CCNC(C)C3)c(F)c21 (stereo not drawn)	inactive	42600	> 50	4.6	5.6	4	Active
CCn1cc(C(=O)Nc2cccc([N+](=O)[O-])c2)c(=O)c2cc(F)c(N3CCNC(C)C3)c(F)c21 (stereo not drawn)	inactive	1700	1	2.71	3.25	3.24	Active
CC[C@@]1(O)C(=O)OCc2c1cc1n(c2=O)Cc2cc3cc(O)ccc3nc2-1 [HYDROXYCAMPTOTHECIN]				0.3	0.06	0.07	
CCn1cc(C(=O)Nc2cc([N+](=O)[O-])ccc2F)c(=O)c2cc(F)c(N3CCNC(C)C3)c(F)c21 (stereo not drawn)	inactive	3200	2.9	2.6	6.9	1.7	Active
CCn1cc(C(=O)Nc2ccc(OC)cc2)c(=O)c2cc(F)c(N3CCNC(C)C3)c(F)c21 (stereo not drawn)	inactive	2600	5.4	3.8	7.3	9.7	
